Data as given in PMC9781268, “2-Arylpropionic Acid Pyrazolamides as Cannabinoid CB2 Receptor Inverse Agonists Endowed with Anti-Inflammatory Properties” (Pharmaceuticals, 2022).
In brackets after ≈: the same amount, converted by molar mass. Entries after “also recorded” stand apart in the source; their conditions may differ.

How the values were obtained:
human CB2 [1] = biological target: T1, human CB2 (Homo sapiens, UniProt P34972); assay: Human CB2 (agonist radioligand) receptor binding assay, [3H]-WIN 55212-2; design: host or cells: cAMP Hunter CHO-K1 CNR2 Gi; conditions: membranes from CB2-expressing CHO cells, [3H]-WIN55212-2 radioligand, duplicate
Procedure: Assays of binding to CB2 receptors were performed at Eurofins Discovery France (https://www.eurofinsdiscoveryservices.com/) under the study number 100057099 (accessed on 3 June 2021) using the protocol previously published by Munro, Thomas, and Abu-Shaar. Human recombinant CB2 receptors were expressed in CHO cells, and binding was performed with [^3H]-WIN 55212-2, which is a nonselective agonist radioligand. The analysis was performed using software developed at Cerep (Hill software, Santa Barbara, CA, USA) and SigmaPlot 4.0 for Windows (^©1997 by SPSS Inc., Chicago, IL, USA).
(§1) Data obtained from duplicate experiments were fit to concentration-response curves by non-linear regression of the Hill equation. Curve-fit parameters and standard errors were calculated using GraphPad Prism 6.0 (Hercules, CA, USA).

human CB2 [2] = biological target: T1, human CB2; assay: Agonist activity, cAMP in CB2-transfected CHO cells; type: cell-based; design: host or cells: CHO cells; conditions: CB2-expressing CHO cells, from 1 μM
Procedure: (§2) Negative and blank controls were performed in triplicate with and without the addition of forskolin, respectively.

[3] = test system: formalin-induced licking behavior in mice; assay: Formalin-induced licking behavior; type: in vivo, Swiss Webster mice
Procedure: This assay was performed as described by Hunskaar et al. and adapted by Gomes et al.. This model was characterized by a response that occurred in two phases. The first phase (acute neurogenic pain) occurred during the first 5 min after the intraplantar injection of formalin, and the second phase (inflammatory pain) occurred 15 to 30 min post-injection. Mice were pretreated with oral doses of LASSBio-2265 (11, at 1, 3 or 10 mg/kg, p.o.), morphine (2.5 mg/kg, i.p.), acetylsalicylic acid (ASA, 200 mg/kg, p.o.), or the vehicle (same amount of DMSO used to solubilize the substances + NaCl 0.9%) 60 min before the administration of formalin. […] Then, mice (n = 7 per group) received 20 μL of formalin (2.5% v/v) in the dorsal surface of the left hind paw. The time that the mice spent licking the injected paw was immediately recorded. […] The final volume administered to mice was 0.1 mL.

[4] = Parallel artificial membrane permeability assay, gastrointestinal (PAMPA-GI / PAMPA-GTI)
Procedure: A 10 mM solution of each compound (tests and controls) was prepared in DMSO. Then, in a 5 mL glass flask, 250 µL of the freshly prepared solution was homogenized with 4750 µL of PBS at pH 6.6 to a concentration of 10 mM. The solution was then filtered in a 0.45 µm PVDF filter and set aside. Then, 180 µL of a solution of phosphate-bufffered saline (PBS, pH 7.4):DMSO (95:5) was added to the wells of the receptor plate, and 5 µL of the soy L-α-phosphatidylcholine lipid solution (20 mg/mL in dodecane) was added to the wells of the donor plate. After 5 min, the donor plate received 180 µL of the reserved solution containing each compound. […] After this period, the donor plate was removed, and the contents of the recipient plate were transferred to a UV reading plate and read (SpectraMax 5, Molecular Devices) at the maximum wavelengths for each compound. The blank was prepared with 180 µL of PBS solution (pH 7.4):DMSO (95:5). The experiments were carried out in triplicate with two different analyses (n = 2) [37]. The optical density values obtained from the readings at each selected wavelength for each of the compounds were analyzed by comparison with the values of the controls. These values were used to determine the absorbed fraction (Fa %) using the JMP® program version 10.0.

plasma carboxylesterases = assay: Plasma stability against enzymatic hydrolysis; type: in vitro ADME, Wistar rats; conditions: rat plasma, determined after 240 min
Procedure: For the evaluation of plasma stability against plasma carboxylesterases, a pool of plasma male Wistar rats weighing 300–360 g kept in the vivarium of the Laboratory of Biochemical and Molecular Pharmacology-UFRJ was used. Blood was collected with heparin and kept on ice. Then, the samples were centrifuged at 2000 rpm for 15 min at 20 °C, with subsequent removal of the plasma. The plasma was then diluted 80% (v/v) with phosphate buffer (PBS; pH = 7.4) at 37 °C. The experiments performed in this work were approved by the Ethics Committee on the Use of Animals in Scientific Experiments of the Health Sciences Center of the Federal University of Rio de Janeiro (Number 028/15). The biological matrix was incubated at 37 °C under agitation for 30, 60, 120, and 240 min. The degree of degradation was evaluated by HPLC-PDA with methyl 1,1′bisphenyl-4-carboxylate as an internal standard (PI), using an isocratic mobile phase of 70%:30% acetonitrile:water (0–15 min), an injection volume of 20 μL, a flow rate of 1 mL/min, and detection at 254 nm.

[5] = Distribution coefficient at pH 7.4 (shake-flask, octanol/phosphate buffer); type: physicochemical; conditions: 1-octanol/buffer pH 7.4; n-octanol/buffer partitioning at pH 7.4, UV method; read-out: Log D7.4
Procedure: The assay was performed based on the shake-flask method and the absorbance readings by ultraviolet spectroscopy at maximum absorbance wavelength. To a Falcon tube with a capacity of 15 mL, 5 mL of buffer solution at pH 7.4 and 5 mL of 1-octanol were added. Then, the tested compounds were added at defined concentrations of approximately 10–15 µM, and the mixtures were homogenized via vigorous manual shaking. Next, the Falcon tubes were stirred for 4 h at 37 °C, and the experiment was carried out in triplicate for each compound. Subsequently, each sample was placed in a separatory funnel, and the collected aqueous phase was filtered through a 0.45 µm PVDF filter and transferred to a quartz cuvette (10 mm optical path) for UV/Vis reading. The distribution coefficient of each compound at pH 7.4 was determined by linear regression using the straight-line equation [33].

human CB1 = biological target: T2, human CB1 (Homo sapiens, UniProt P21554); assay: Agonist activity, cAMP in CB1-transfected CHO cells; type: cell-based; conditions: CB1-expressing CHO cells
T2 construct: host or cells: CHO cells
Procedure: as §2

human CB2 [6] = biological target: T1, human CB2; assay: Inverse agonist activity, cAMP Hunter CHO-K1 CNR2 Gi cells (HitHunter cAMP XS+); type: cell-based; design: host or cells: cAMP Hunter CHO-K1 CNR2 Gi; conditions: inverse agonism, cAMP increase, 8 μM (EC20) forskolin
Procedure: The cellular functional assay used to evaluate the inverse agonist activity of LASSBio-2265 (11) toward the cannabinoid CB2 receptor was carried out at Eurofins DiscoveryX Corporation USA (https://www.discoverx.com/home) under the study number FR095-0025341-Q (accessed on 02 June 2021) using the GPCR Biosensor Assay. Cell line cAMP Hunter CHO-K1 CNR2 Gi was seeded at a total volume of 20 µL into white-walled, 384-well microplates and incubated at 37 °C prior to testing in the presence of 8 μM (EC20) forskolin. The media was aspirated from the cells and replaced with 15 µL a 2:1 solution of Hanks’ balanced salt solution (HBSS)/10 mM Hepes:cAMP XS+ Ab reagent. Intermediate dilution of the sample stocks was performed to generate 4× samples in assay buffer containing 32 μM forskolin. Then, 5 µL of each 4× sample was added to the cells and incubated at 37 °C for 60 min. […] After signal generation, the microplates were read with a PerkinElmer Envision instrument for chemiluminescent signal detection. Compound activity was analyzed using the CBIS data analysis suite (ChemInnovation, San Diego, CA, USA). Percent activity was calculated using the following formula: […]
as §1

[7] = Parallel artificial membrane permeability assay, blood-brain barrier (PAMPA-BBB)
Procedure: In a 5 mL glass vial, 1 mg of each compound (test or control) was dissolved in 1 mL of ethanol. Then, 500 μL of ethanol and 3.5 mL of PBS at pH 7.4 were added to this solution. […] After 5 min, the donor plate received 180 μL of each compound solution in triplicate. […] The experiments were performed in triplicate with two different analyses (n = 2).

[8] = Aqueous solubility (thermodynamic, UV spectroscopy); type: physicochemical; conditions: aqueous buffer, thermodynamic from solid, phosphate buffer pH 7.4, 37 °C
Procedure: The test was performed based on the absorbance obtained by ultraviolet spectroscopy. The scanning wavelength was determined according to the highest absorbance observed for each compound. Saturated aqueous solution of the analyzed compounds were stirred for 4 h at 37 °C, and then filtered through a 0.45 µm PVDF filter and transferred to a quartz cuvette (10 mm optical path) for reading. Solubility was determined by linear regression based on the equation of the line.

T1 sequence (P34972 whole entry): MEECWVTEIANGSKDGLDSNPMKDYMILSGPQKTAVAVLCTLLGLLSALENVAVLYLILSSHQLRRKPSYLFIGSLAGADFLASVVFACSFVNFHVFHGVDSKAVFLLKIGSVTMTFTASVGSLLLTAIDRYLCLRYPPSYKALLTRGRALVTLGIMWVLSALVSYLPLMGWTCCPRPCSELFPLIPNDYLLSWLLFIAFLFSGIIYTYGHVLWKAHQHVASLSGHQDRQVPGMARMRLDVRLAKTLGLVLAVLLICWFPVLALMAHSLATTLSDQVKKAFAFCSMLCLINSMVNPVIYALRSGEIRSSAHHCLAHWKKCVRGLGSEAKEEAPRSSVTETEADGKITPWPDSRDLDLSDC
T2 sequence (P21554 whole entry): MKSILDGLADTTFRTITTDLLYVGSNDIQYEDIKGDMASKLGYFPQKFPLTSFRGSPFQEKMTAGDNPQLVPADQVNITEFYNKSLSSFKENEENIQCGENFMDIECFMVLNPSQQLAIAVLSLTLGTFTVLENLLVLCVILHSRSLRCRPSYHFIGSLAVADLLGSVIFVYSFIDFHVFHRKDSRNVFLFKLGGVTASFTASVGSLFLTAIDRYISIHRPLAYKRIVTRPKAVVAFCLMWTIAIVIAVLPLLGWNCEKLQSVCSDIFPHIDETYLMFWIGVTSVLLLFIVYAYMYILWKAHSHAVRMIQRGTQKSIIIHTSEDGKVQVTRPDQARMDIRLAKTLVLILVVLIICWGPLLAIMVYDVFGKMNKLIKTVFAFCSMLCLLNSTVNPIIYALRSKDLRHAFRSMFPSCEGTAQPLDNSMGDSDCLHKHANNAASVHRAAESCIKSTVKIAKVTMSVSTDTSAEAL

Cc1c(N(C)C(=O)C(C)c2ccc(-c3ccccc3)c(F)c2)c(=O)n(-c2ccccc2)n1C (centres unmarked) [Compound 11, N-(1,5-dimethyl-3-oxo-2-phenyl-2,3-dihydro-1H-pyrazol-4-yl)-2-(2-fluoro-[1,1’-biphenyl]-4-yl)-N-methylpropanamide]
Ki (human CB2 [1]): 16 µM | Effect on cAMP concentration (human CB2 [2]): important effect starting from 1 μM | Antinociceptive effect in the formalin test ([3]; 3 mg/kg): decreased pain behaviour | Analgesia in the second (late, inflammatory) phase of the formalin test ([3]; LASSBio-2265 1, 3 and 10 mg/kg p.o., morphine 2.5 mg/kg, ASA 200 mg/kg, listed as LASSBio-2265 (11)): remarkable analgesic activity in the late inflammatory phase; also recorded: comparable to both morphine and ASA | Analgesia in the first phase of the formalin test ([3]; morphine 2.5 mg/kg i.p., ASA 200 mg/kg p.o., LASSBio-2265 1, 3 and 10 mg/kg p.o., compared to vehicle): only morphine (2.5 mg/kg) promoted significant analgesia | Papp at 8 h, 0.5 mM ([4]; PAMPA): 10.2 ×10⁻⁶ cm/s | Classification ([4]; Table S1, PAMPA-GTI): HIGH (high intestinal permeability: >70%) | Pe Exp ([4]; Table S1, PAMPA-GTI): 10,18 10-6 cm/s | Fa ([4]; Table S1, PAMPA-GTI, absorbed fraction): 97,91% | PAMPA-GI Fa Exp ([4]; absorbed fraction, soybean L-α-phosphatidylcholine membrane): 97.91% | Plasma Metabolization Rate (plasma carboxylesterases): 13.04% | logD [5]: 1.98 | Effect on cAMP concentration (human CB1): no effect was observed | Emax (human CB2 [6]; CHO-K1, read-out: Emax (efficacy, % of the maximum effect)): 63% | EC50 (human CB2 [6]): 0.369 ± 0.03 µM | Papp at 2.75 h, 0.2 mg/mL ([7]; PAMPA, pH 7.4): 9.26 ×10⁻⁶ cm/s | Classification ([7]; Table S2, PAMPA-BBB): CNS + | Pe experimental ([7]; Table S2, PAMPA-BBB): 9,26 10-6 cm s-1 | PAMPA-BBB Score ([7]; porcine brain lipid membrane): CNS+ (CNS+ (high predicted BBB permeability) Pe > 4.0 × 10^−6 cm/s) | solubility at 4 h [8]: 68.5 µM (≈ 30.4 µg/mL)
